In the NIST ThermoML archive (doi:10.1016/j.jct.2016.03.018):
Numbers after ± are expanded uncertainties.

Conditions: Liquid, Closed cell (Static) method

F/C=C\C(F)(F)F [(Z)-1,3,3,3-tetrafluoro-1-propene]
vapor or sublimation pressure (273.15 K): 68.5 ± 1 kPa | vapor or sublimation pressure (283.15 K): 102.5 ± 1.1 kPa | vapor or sublimation pressure (293.15 K): 148.9 ± 1.1 kPa

CCC [propane]
vapor or sublimation pressure (253.15 K): 244.1 ± 1.2 kPa | vapor or sublimation pressure (263.15 K): 345.1 ± 1.4 kPa | vapor or sublimation pressure (273.15 K): 474.4 ± 1.7 kPa | vapor or sublimation pressure (283.15 K): 636.4 ± 2.1 kPa | vapor or sublimation pressure (293.15 K): 836.3 ± 2.6 kPa
